This is an account of results in patent US8871934B2, “Fluorene compound and pharmaceutical use thereof” (Japan Tobacco Inc., priority 2008, dated 2014).

SMILES strings stand for the structures. Like-named read-outs stand apart in the source and are kept apart here.

For this assay, the target named is human PDHK2 (hPDHK2) (Homo sapiens (Human), UniProt Q15119). The assay can be described thus: Inhibitory action of PDHK activity in vitro (kinase reaction, residual PDH activity measured). In kind it is biochemical.
Setting [1] is: PDHK inhibitory activity, class symbol of IC50.
The mark [2] stands for this setting: read-out: PDHK inhibitory activity IC50.

As a reminder, the IC50 is the concentration at which inhibition is half-maximal. In the case of `CCC(=O)N1CCN(c2ccc3c(c2)C(O)(C(F)(F)F)c2ccccc2-3)CC1` (stereo not drawn) [compound 207], the IC50 is, setting by setting: under setting [1], 100 to 1000 nM; under setting [2], 998 nM.

As for `CC(C)C(=O)N1CCN(c2ccc3c(c2)C(O)(C(F)(F)F)c2ccccc2-3)CC1` (stereo not drawn) [compound 208], the concentration for half-maximal inhibition (IC50) was 100 to 1000 nM under setting [1] and 677 nM under setting [2].

Turning to `CC(C)(C)C(=O)N1CCN(c2ccc3c(c2)C(O)(C(F)(F)F)c2ccccc2-3)CC1` (stereo not drawn) [compound 209], the IC50 under setting [1] fell in the range of 100 to 1000 nM and the IC50 under setting [2] was 281 nM.

In the case of `COC(=O)N1CCN(c2ccc3c(c2)C(O)(C(F)(F)F)c2ccccc2-3)CC1` (stereo not drawn) [compound 210], the IC50 is above 1000 nM under setting [1] and 1330 nM under setting [2].

Regarding `CCOC(=O)N1CCN(c2ccc3c(c2)C(O)(C(F)(F)F)c2ccccc2-3)CC1` (stereo not drawn) [compound 211], the half-inhibitory concentration (IC50) was above 1000 nM under setting [1] and 1010 nM under setting [2].

In the case of `CC(C)OC(=O)N1CCN(c2ccc3c(c2)C(O)(C(F)(F)F)c2ccccc2-3)CC1` (stereo not drawn) [compound 212], the IC50 is 100 to 1000 nM under setting [1] and 685 nM under setting [2].

As to `O=C(c1cnc2c(c1)C(O)(C(F)(F)F)c1ccccc1-2)N1CCC1` (stereo not drawn) [compound 213], the IC50 was 100 to 1000 nM under setting [1] and 173 nM under setting [2].

Turning to `N#Cc1cccc(-c2ccc3c(c2)C(O)(C(F)(F)F)c2ccccc2-3)c1` (stereo not drawn) [compound 214], the IC50 reads like this: under setting [1], 100 to 1000 nM; under setting [2], 345 nM.

On to `O=C(c1ccc2c(c1)C(O)(C(F)(F)F)c1ccccc1-2)N1CCC(O)C1` (stereo not drawn) [compound 215], for which the IC50 under setting [1] is above 1000 nM and the IC50 under setting [2] came to 4600 nM.

Consider `CN(C)C1CCN(C(=O)c2ccc3c(c2)C(O)(C(F)(F)F)c2ccccc2-3)C1` (stereo not drawn) [compound 216], for which the half-maximal inhibitory concentration (IC50) reads like this: under setting [1], above 1000 nM; under setting [2], 2560 nM.

As for `O=C(O)C1CCN(C(=O)c2ccc3c(c2)C(O)(C(F)(F)F)c2ccccc2-3)C1` (stereo not drawn) [compound 217], the IC50 under setting [1] was above 1000 nM and the IC50 under setting [2] was 5330 nM.

`COC(=O)C1CCN(c2ccc3c(c2)C(O)(C(F)(F)F)c2ccccc2-3)CC1` (stereo not drawn) [compound 218]: the IC50 reads like this: under setting [1], above 1000 nM; under setting [2], 1840 nM.

As to `COC(=O)c1cccc2c1-c1ccc(F)cc1C2(O)C(F)(F)F` (stereo not drawn) [compound 219], the IC50 under setting [1] is above 1000 nM and the 50% inhibitory concentration (IC50) under setting [2] is above 10000 nM.

`COC(=O)c1cccc2c1-c1cc(F)ccc1C2(O)C(F)(F)F` (stereo not drawn) [compound 220]: the IC50 is, setting by setting: under setting [1], 100 to 1000 nM; under setting [2], 488 nM.

On to `COC(=O)c1ccc(F)c2c1-c1ccccc1C2(O)C(F)(F)F` (stereo not drawn) [compound 221], for which the IC50 under setting [1] is above 1000 nM and the IC50 under setting [2] is above 10000 nM.

Consider `O=C(O)C1CCN(c2ccc3c(c2)C(O)(C(F)(F)F)c2ccccc2-3)CC1` (stereo not drawn) [compound 222], for which the IC50 reads like this: under setting [1], above 1000 nM; under setting [2], 5390 nM.

As for `CCOC(=O)C1CCN(c2ccc3c(c2)C(O)(C(F)(F)F)c2ccccc2-3)CC1` (stereo not drawn) [compound 223], the IC50 is above 1000 nM under setting [1] and 2330 nM under setting [2].

On to `N#Cc1ccc(-c2ccc3c(c2)C(O)(C(F)(F)F)c2ccccc2-3)cc1` (stereo not drawn) [compound 224], for which the IC50 was 100 to 1000 nM under setting [1] and 214 nM under setting [2].

Regarding `O=C(c1ccc2c(c1)C(O)(C(F)(F)F)c1ccccc1-2)N1CCC(CO)C1` (stereo not drawn) [compound 225], the concentration for half-maximal inhibition (IC50) runs as follows: under setting [1], 100 to 1000 nM; under setting [2], 619 nM.

Regarding `NC(=O)C1CCN(C(=O)c2ccc3c(c2)C(O)(C(F)(F)F)c2ccccc2-3)C1` (stereo not drawn) [compound 226], the IC50 reads like this: under setting [1], above 1000 nM; under setting [2], 1140 nM.

Consider `CNC(=O)C1CCN(C(=O)c2ccc3c(c2)C(O)(C(F)(F)F)c2ccccc2-3)C1` (stereo not drawn) [compound 227], for which the IC50 was above 1000 nM under setting [1] and 1050 nM under setting [2].

Turning to `CNC1CCN(C(=O)c2ccc3c(c2)C(O)(C(F)(F)F)c2ccccc2-3)C1` (stereo not drawn) [compound 228], the IC50 was above 1000 nM under setting [1] and 2190 nM under setting [2].

For the compound `CN(C)C(=O)C1CCN(C(=O)c2ccc3c(c2)C(O)(C(F)(F)F)c2ccccc2-3)C1` (stereo not drawn) [compound 229], the IC50 is, setting by setting: under setting [1], 100 to 1000 nM; under setting [2], 552 nM.

Consider `NC(=O)C1CCN(c2ccc3c(c2)C(O)(C(F)(F)F)c2ccccc2-3)CC1` (stereo not drawn) [compound 230], for which the IC50 runs as follows: under setting [1], above 1000 nM; under setting [2], 3710 nM.

Take `CNC(=O)C1CCN(c2ccc3c(c2)C(O)(C(F)(F)F)c2ccccc2-3)CC1` (stereo not drawn) [compound 231]: the IC50 reads like this: under setting [1], above 1000 nM; under setting [2], 3610 nM.

`CN(C)C(=O)C1CCN(c2ccc3c(c2)C(O)(C(F)(F)F)c2ccccc2-3)CC1` (stereo not drawn) [compound 232]: the IC50 is above 1000 nM under setting [1] and 1990 nM under setting [2].

As to `CCOC(=O)c1ccc(-c2cc(Cl)c3c(c2)C(O)(C(F)(F)F)c2ccccc2-3)cc1` (stereo not drawn) [compound 233], the IC50 by setting is: under setting [1], 100 to 1000 nM; under setting [2], 142 nM.

On to `O=C(O)c1ccc(-c2cc(Cl)c3c(c2)C(O)(C(F)(F)F)c2ccccc2-3)cc1` (stereo not drawn) [compound 234], for which the IC50 reads like this: under setting [1], below 100 nM; under setting [2], 58 nM.

Turning to `COc1nc2c(cc1C(=O)N1CCC1)C(O)(C(F)(F)F)c1ccccc1-2` (stereo not drawn) [compound 235], the 50% inhibitory concentration (IC50) by setting is: under setting [1], 100 to 1000 nM; under setting [2], 803 nM.

For the compound `COC(=O)c1ccc(-c2ccc3c(c2)C(O)(C(F)(F)F)c2ccccc2-3)cc1Cl` (stereo not drawn) [compound 236], the IC50 was 100 to 1000 nM under setting [1] and 355 nM under setting [2].

Consider `O=C(O)c1ccc(-c2ccc3c(c2)C(O)(C(F)(F)F)c2ccccc2-3)cc1Cl` (stereo not drawn) [compound 238], for which the IC50 is, setting by setting: under setting [1], 100 to 1000 nM; under setting [2], 252 nM.

On to `NC(=O)c1ccc(-c2ccc3c(c2)C(O)(C(F)(F)F)c2ccccc2-3)cc1Cl` (stereo not drawn) [compound 239], for which the half-maximal inhibitory concentration (IC50) by setting is: under setting [1], 100 to 1000 nM; under setting [2], 178 nM.

In the case of `CNC(=O)c1ccc(-c2ccc3c(c2)C(O)(C(F)(F)F)c2ccccc2-3)cc1Cl` (stereo not drawn) [compound 240], the IC50 reads like this: under setting [1], 100 to 1000 nM; under setting [2], 149 nM.

On to `CN(C)C(=O)c1ccc(-c2ccc3c(c2)C(O)(C(F)(F)F)c2ccccc2-3)cc1Cl` (stereo not drawn) [compound 241], for which the IC50 runs as follows: under setting [1], below 100 nM; under setting [2], 98 nM.

As to `O=C(c1cc(-c2cccnc2)c2c(c1)C(O)(C(F)(F)F)c1ccccc1-2)N1CCC1` (stereo not drawn) [compound 242], the IC50 reads like this: under setting [1], below 100 nM; under setting [2], 86 nM.

On to `OC1(C(F)(F)F)c2ccccc2-c2c(-c3cccnc3)cc(Cl)cc21` (stereo not drawn) [compound 243], for which the IC50 is below 100 nM under setting [1] and 75 nM under setting [2].

On to `OC1(C(F)(F)F)c2ccccc2-c2ccc(C3CC3)cc21` (stereo not drawn) [compound 244], for which the IC50 under setting [1] is above 1000 nM and the IC50 under setting [2] worked out at 2930 nM.

Consider `OC1(C(F)(F)F)c2ccccc2-c2ccc(-c3cnco3)cc21` (stereo not drawn) [compound 245], for which the concentration for half-maximal inhibition (IC50) is, setting by setting: under setting [1], 100 to 1000 nM; under setting [2], 190 nM.

On to `CC(=O)N(C)C1CCN(C(=O)c2ccc3c(c2)C(O)(C(F)(F)F)c2ccccc2-3)C1` (stereo not drawn) [compound 246], for which the IC50 by setting is: under setting [1], 100 to 1000 nM; under setting [2], 809 nM.

As for `Cc1noc(-c2ccc3c(c2)C(O)(C(F)(F)F)c2ccccc2-3)n1` (stereo not drawn) [compound 247], the IC50 runs as follows: under setting [1], 100 to 1000 nM; under setting [2], 547 nM.

With `C/C=C/c1ccc2c(c1)C(O)(C(F)(F)F)c1ccccc1-2` (stereo not drawn) [compound 248], the IC50 by setting is: under setting [1], above 1000 nM; under setting [2], 1020 nM.

In the case of `CCCCOc1ccc2c(c1)C(O)(C(F)(F)F)c1ccccc1-2` (stereo not drawn) [compound 249], the IC50 under setting [1] was in the range of 100 to 1000 nM and the IC50 under setting [2] was determined as 719 nM.
